row,melting point [°C],SMILES
1,130 to 132,COC(=O)/C=C/c1c(F)cc2nn(C)cc2c1C(=O)OC
2,210,COc1cc2c(cc1OC)CN(CCCOc1ccc(NC(=O)c3cccc4c(=O)c5ccccc5sc34)cc1)CC2
3,97 to 98,COc1cc2c(CC#N)c[nH]c2cc1F
4,160 to 162,Cc1cc2c(c(C3=NNC(=O)CC3C)c1)OCCN2 (stereo unspecified)
5,199,CC(C)(C)n1cnc(-c2ccc(F)cc2)c1-c1ccncc1
6,64 to 65,COC(=O)Cn1nnnc1CCC(NC(=O)CCC(C)(NC(=O)OCc1ccccc1)C(=O)O)C(=O)OC (stereo unspecified)
7,185 to 186,Cc1ccc(C(=O)/C=C/c2cc(C(C)(C)C)c3oc(=O)c(C(=O)O)cc3c2)cc1
8,240 to 242,CC(=Cc1c[nH]c2ccc3c(c12)CC(O)CO3)[N+](=O)[O-] (stereo unspecified)
9,165,CC1(C)Oc2ccc(OC(F)F)cc2[C@@H](N2CCCCC2=O)[C@@H]1O (relative stereo)
10,177 to 178,CC(C)(C)c1cc(CCc2ccccc2NC(=O)NC2CCCCCC2)cc(C(C)(C)C)c1O
11,93 to 95,CCOC(=O)CC1COc2c(OC)ccc(C(=O)Nc3ccccc3)c21 (stereo unspecified)
12,102 to 103,Cc1ccc(C(=O)c2cccc3c2CCCC3C(=O)O)cc1 (stereo unspecified)
13,252,O=C1NCC(=O)c2ncn(C3OC(COC(=O)c4ccccc4)C(OC(=O)c4ccccc4)C3OC(=O)c3ccccc3)c2N1 (stereo unspecified)
14,190,O=C1NC(=Cc2ccc(Cl)cc2)C(=O)C1=NO
15,67 to 69,CN(C=O)c1ccccc1C(=O)COS(C)(=O)=O
16,102 to 104,COc1cc(C(C)=O)ccc1OCCCN1CCC(c2noc3ccccc23)CC1
17,156 to 158,c1ccc(Cn2c(-c3ccc4c(c3)OCCO4)nc3cccnc32)cc1
18,147 to 148,COc1ccc(CNC(=O)c2cc([N+](=O)[O-])ccc2N[C@H]2CC[C@@H](OC(C)=O)CC2)cc1OC
19,201 to 202,O=C1OCC2(CC2)N1c1nc(-c2ccc(Br)cc2)cs1
20,82 to 83,C=CCN(C(=O)OCc1ccccc1)c1cc(F)c(-c2ccncc2)c(F)c1
21,186 to 188,c1ccc(-c2cc3c(N4CCOCC4)nnc(N4CCOCC4)c3cn2)cc1
22,98 to 100,c1ccc(CC2CNCCNCCNCCNCCN2)cc1 (stereo unspecified)
23,302 to 305,N#Cc1ccc2[nH]c(-c3ccc(-c4ccc(C#N)c(F)c4)cc3)nc2c1

row,melting point [°C],SMILES
1,96 to 98,C=C(C)C(=O)NC(=O)NCc1ccccc1
2,177 to 180,C=CCOC(=O)c1c(Oc2nc(OC)cc(OC)n2)ccc2[nH]c(C)c(NC(C)=O)c12
3,111 to 112,COc1cc(OC)cc(C(NCC(=O)Nc2c(C(C)C)cccc2C(C)C)c2ccccc2)c1 (stereo unspecified)
4,147 to 149,CC(=O)Nc1ccccc1CS(=O)c1nccn1-c1ccncc1 (stereo unspecified)
5,130 to 131,CCOC(=O)COc1cccc(-n2nc(-c3ccc(F)cc3)c3cccnc32)c1
6,141 to 142,Cc1noc(-c2ccccc2NC(=O)OC2CCNCC2)n1
7,107 to 108,COc1cc(C(=O)Cc2ccccc2)ccc1O
8,59,CCN(CC)c1cccc(CCC(N)=O)c1
9,197 to 199,O=C(O)c1ccc2c(c1)CN(C(=O)OCc1ccccc1)C2
10,161 to 163,C=C(C)CN1C(=O)c2cscc2Nc2ccccc21
11,105,O=C(C=C1OC(=O)c2ccccc21)c1ccccc1
12,187 to 189,Oc1cc2c(cc1O)CN(c1ncnc3c(N4CCOCC4)nc(Cl)nc13)CC2
13,170,CSc1ccc(C2=NC[C@@H](OC(=O)Nc3ccccc3)[C@H](c3ccccc3)O2)cc1 (racemic)
14,65 to 66,COCCC(=O)Nc1ccc(CCCc2ccccc2OCc2ccccc2)cc1
15,240 to 242,Cc1ccccc1Cc1n[nH]c2c1c(=O)n(-c1cccc(OC(F)(F)F)c1)c1ncccc21
16,222 to 224,O=Cc1ccc2c(c1)c1cc(C=O)ccc1n2Cc1ccccc1
17,255 to 257,Cn1cnc2c1c1nnc(-c3ccccc3)n1c(=O)n2Cc1ccccc1
18,167 to 168,CC(NC(=O)c1c(F)cccc1F)C(F)(F)F (stereo unspecified)
19,118 to 119,COc1cc(C(=O)C#CC(=O)N(C)C)cc(OC)c1OC
20,132 to 134,O=C(NCCCn1cncn1)c1ccc(I)cc1
21,220 to 224,O=C(CC(=O)C(F)(F)F)c1ccc(OCc2ccccc2)cc1
22,174 to 176,COc1ccc(-c2c(CO)c(CO)c3n2Cc2ccccc2C3)cc1
23,64,C[C@H](NC(=O)CCS)C(=O)O

row,melting point [°C],SMILES
1,156,N#Cc1c(N2CCNCC2)c2cc(Cl)ccc2n(Cc2ccccc2)c1=O
2,235 to 238,O=C(O)CN1C(=O)C(=Cc2ccc(OCc3ccccc3)c(OCc3ccccc3)c2)SC1=S
3,95 to 97,Cc1cc([N+](=O)[O-])cnc1Oc1ccc(Cl)c(C(F)(F)F)c1
4,119 to 120,Cc1cccnc1-n1c(S(=O)Cc2ccccc2N(C)C)nc2c1CCC2 (stereo unspecified)
5,141 to 142,CCCOc1cc(-c2nc(-c3ccc(C(=O)OC)o3)cs2)ccc1OC
6,180 to 185,CC(=O)c1ccc(-c2ccc(C(=O)NCCCCN3CCC(c4ccc5c(c4O)CCCC5)CC3)cc2)cc1
7,141,COc1ccc(S(=O)(=O)N(CC(N)=O)c2ccc(C)cc2Cc2ccccc2Cl)cc1OC
8,162 to 163,COC1=C(OC)C(=O)c2c(NC(C)=O)cccc2C1=O
9,155 to 158,NC(=O)C(O)c1c(Cl)cccc1Cl (stereo unspecified)
10,168 to 170,CCOC(=O)C1=C(COCc2nnc(CN(C)C)s2)NC(C)=C(C(=O)OC)C1c1cccc(Cl)c1Cl (stereo unspecified)
11,131 to 134,Cc1n[nH]c(/C=C/c2ccccc2)n1
12,72 to 74,Cc1c(C)c2c(c(C)c1OCCc1ccccc1)C(c1ccc(C(C)C)cc1)C(C)(C)O2 (stereo unspecified)
13,141 to 143,O=C(O)c1cc2cc(Cl)c(Cl)cc2nc1N[C@@H](Cc1ccccc1)C(=O)O
14,201 to 203,Cc1cc(C)c(Nc2nc(C)ncc2S(=O)(=O)c2ccc(-c3ccccn3)cc2)c(C)c1
15,233 to 235,CCn1cc(Br)ccc1=NC=C(S(=O)(=O)c1ccccc1)S(=O)(=O)c1ccccc1
16,228 to 229,O=C1N(C(c2ccccc2)c2ccccc2)c2ccc(F)cc2C12COc1cc3c(cc12)CCO3 (stereo unspecified)
17,53 to 54,CCC(=NOCc1cccs1)c1cc(Cl)ccc1NS(=O)(=O)C(F)(F)F
18,287 to 289,NC(=O)c1c(-c2ccc(F)cc2)cc2c3c1ccn3C(=O)CNC2
19,133 to 134,Cc1oc(-c2ccccc2)nc1CCOc1ccc(CC(C)(C)C(=O)O)cc1
20,167 to 168,CN(Cc1ccc([N+](=O)[O-])cc1)C1CCN(c2ccc(NS(C)(=O)=O)cc2)CC1
21,79 to 82,COC(=O)C=C1CC(NC(=O)OC(C)(C)C)C1 (stereo unspecified)

row,SMILES,melting point [°C]
1,O=C1CCC2C3Cc4ccc(O)cc4C2(CCN3CC2CC2)C1 (stereo unspecified),125 to 127
2,COc1cccc(OCCN2CCC(N(C)c3nccc(N(C)C)n3)CC2)c1,105
3,CC(C)(C)NCC(O)c1ccc(N)c(C#N)c1 (stereo unspecified),181 to 185
4,CC(c1c[nH]cn1)c1cccc(C(=N)N)c1O (stereo unspecified),191

# From a melting point compilation (Tetko et al.; mined from patent text by program, amines drawn as free bases though some values may be those of a salt)
